Source: patent publication US9783536B2, “Nitrogen-containing heterocyclic compound or salt thereof” (FUJIFILM Corporation, priority 2013, dated 2017)
Structures can show the parent of a compound that is named as a salt.

Columns and labels:
Format in all cases: biochemical
[1] = biological target: T1, GST fusion human ERK2 protein (Homo sapiens, UniProt P28482); test: ERK2 enzyme assay (1); conditions: 2.5 nmol/L ERK2, ATP 43.1 μmol/L; read-out: ERK2 enzyme inhibitory activity (1)
T1 construct: purchased Carna Biosciences, Inc; host or cells: E. coli expression system
T1 sequence (P28482 whole entry, the tested form may be a part): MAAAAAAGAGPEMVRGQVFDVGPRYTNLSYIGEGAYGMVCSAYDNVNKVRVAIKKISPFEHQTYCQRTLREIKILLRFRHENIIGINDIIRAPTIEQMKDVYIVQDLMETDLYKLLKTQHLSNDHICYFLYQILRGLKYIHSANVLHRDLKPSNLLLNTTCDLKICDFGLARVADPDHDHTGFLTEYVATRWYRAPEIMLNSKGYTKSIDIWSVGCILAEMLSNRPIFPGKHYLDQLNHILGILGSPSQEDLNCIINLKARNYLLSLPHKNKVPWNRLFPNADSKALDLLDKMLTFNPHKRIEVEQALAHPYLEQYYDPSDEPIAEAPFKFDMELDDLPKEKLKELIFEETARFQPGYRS
Summary of the method: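 Enzyme (2.5 nmol/L, E. coli-expressed) preincubated with compound 15 min at room temperature in HEPES/MgCl2/DTT/Brij35 buffer, pH 7.5; reaction with 4.25 μmol/L FL-Peptide 8 and 43.1 μmol/L ATP for 120 min at 25 °C. Phosphorylated peptide fraction quantified by mobility-shift separation after EDTA stop; IC50 calculated.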

[2] = biological target: T2, human PI3Kα protein (Homo sapiens, UniProt P42336); test: PI3Kα enzyme assay (ADP-Glo); conditions: 4.5 nmol/L PI3Kα, PIP2 50 μmol/L, ATP 100 μmol/L; read-out: PI3Kα enzyme inhibitory activity
T2 construct: purchased Carna Biosciences, Inc; host or cells: baculovirus expression system
T2 sequence (P42336 whole entry): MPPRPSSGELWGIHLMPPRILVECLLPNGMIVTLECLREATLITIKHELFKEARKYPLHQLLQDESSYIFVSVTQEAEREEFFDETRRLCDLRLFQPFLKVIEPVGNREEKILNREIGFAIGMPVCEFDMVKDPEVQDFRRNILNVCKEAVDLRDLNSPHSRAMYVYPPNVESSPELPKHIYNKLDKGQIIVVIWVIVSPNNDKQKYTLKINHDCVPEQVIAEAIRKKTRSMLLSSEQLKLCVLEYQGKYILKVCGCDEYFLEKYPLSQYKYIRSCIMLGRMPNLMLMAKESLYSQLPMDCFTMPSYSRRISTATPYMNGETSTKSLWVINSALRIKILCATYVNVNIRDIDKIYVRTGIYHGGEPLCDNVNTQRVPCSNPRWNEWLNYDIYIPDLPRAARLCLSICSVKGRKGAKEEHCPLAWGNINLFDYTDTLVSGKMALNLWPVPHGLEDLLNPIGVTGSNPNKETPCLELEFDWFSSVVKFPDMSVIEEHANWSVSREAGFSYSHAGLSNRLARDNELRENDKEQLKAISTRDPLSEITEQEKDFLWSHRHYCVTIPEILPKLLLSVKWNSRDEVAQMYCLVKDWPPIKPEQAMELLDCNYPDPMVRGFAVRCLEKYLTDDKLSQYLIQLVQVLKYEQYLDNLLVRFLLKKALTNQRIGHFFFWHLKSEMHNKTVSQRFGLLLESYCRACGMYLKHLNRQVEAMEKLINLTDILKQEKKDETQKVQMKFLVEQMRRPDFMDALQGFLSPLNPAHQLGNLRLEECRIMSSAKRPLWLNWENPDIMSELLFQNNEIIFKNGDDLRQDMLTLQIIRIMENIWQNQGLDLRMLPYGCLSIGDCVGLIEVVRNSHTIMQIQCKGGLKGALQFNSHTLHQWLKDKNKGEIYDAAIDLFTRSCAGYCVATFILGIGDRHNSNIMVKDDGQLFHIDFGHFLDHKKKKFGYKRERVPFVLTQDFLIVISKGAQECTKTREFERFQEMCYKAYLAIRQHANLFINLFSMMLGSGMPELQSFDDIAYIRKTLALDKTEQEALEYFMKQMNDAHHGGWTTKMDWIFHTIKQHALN
T2 sequence (P27986 whole entry partner): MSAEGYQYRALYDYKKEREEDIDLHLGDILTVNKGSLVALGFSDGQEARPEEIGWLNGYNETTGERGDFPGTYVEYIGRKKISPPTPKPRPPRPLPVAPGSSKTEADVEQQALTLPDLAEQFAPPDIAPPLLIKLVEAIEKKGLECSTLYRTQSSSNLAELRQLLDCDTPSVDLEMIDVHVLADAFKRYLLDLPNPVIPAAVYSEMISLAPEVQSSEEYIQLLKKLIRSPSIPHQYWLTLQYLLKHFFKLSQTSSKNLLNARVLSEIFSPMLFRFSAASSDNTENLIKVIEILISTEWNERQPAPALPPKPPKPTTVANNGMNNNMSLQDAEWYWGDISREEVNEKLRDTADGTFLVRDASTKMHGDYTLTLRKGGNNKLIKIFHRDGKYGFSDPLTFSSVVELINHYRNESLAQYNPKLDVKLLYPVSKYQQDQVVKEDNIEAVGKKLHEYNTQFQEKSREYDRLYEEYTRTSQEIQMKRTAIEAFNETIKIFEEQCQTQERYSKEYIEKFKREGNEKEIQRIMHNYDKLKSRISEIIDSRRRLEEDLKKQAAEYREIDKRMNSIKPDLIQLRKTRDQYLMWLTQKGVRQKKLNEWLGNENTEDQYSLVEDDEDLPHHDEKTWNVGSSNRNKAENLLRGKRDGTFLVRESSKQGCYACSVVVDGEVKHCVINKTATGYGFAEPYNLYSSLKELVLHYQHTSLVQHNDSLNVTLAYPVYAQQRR
Summary of the method: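 Biotinylated human PI3Kα (baculovirus-expressed, 4.5 nmol/L) pre-incubated 15 min with compound in Tris-HCl pH 7.5, MgCl2, BSA; reaction 60 min at 25° C with 50 μmol/L PIP2 and 100 μmol/L ATP final. ADP quantified by ADP-Glo luminescence; IC50 calculated.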

[3] = biological target: T1, GST fusion human ERK2 protein; test: ERK2 enzyme assay (2); conditions: 1.25 nmol/L ERK2, ATP 1 mmol/L; read-out: ERK2 enzyme inhibitory activity (2)
Summary of the method: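 GST-tagged human ERK2 expressed in E. coli (1.25 nmol/L) was preincubated with compound for 15 min at room temperature in pH 7.5 Hepes buffer with MgCl2, DTT and Brij35. Reaction with FL-Peptide 8 (final 4.25 μmol/L) and ATP (final 1 mmol/L) ran 120 min at 25 °C; EDTA stopped it, and phosphorylated peptide was quantified by mobility-shift separation to derive IC50.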

IC50 [1] | IC50 [2] | IC50 [3] | Compound
< 1000 nM | < 1000 nM | < 1000 nM | c1nnc(Nc2ccc3ncc(-c4cn[nH]c4)cc3n2)s1 [Example 0032, N-(7-(1H-pyrazol-4-yl)-1,5-naphthyridin-2-yl)-1,3,4-thiadiazole-2-amine hydrochloride]
< 1000 nM | < 1000 nM | < 1000 nM | CN(c1cccnc1)c1cnc2ccc(Nc3nnc(C4CCCC4)s3)nc2c1 [Example 0071]
< 1000 nM | < 1000 nM | < 1000 nM | COc1cncc(Nc2cnc3ccc(Nc4nnc(C5CCCC5)s4)nc3c2)c1 [Example 0072]
< 1000 nM | < 1000 nM | < 1000 nM | c1ncc(OCCCN2CCOCC2)cc1Nc1cnc2ccc(Nc3nnc(C4CCCC4)s3)nc2c1 [Example 0084]
< 1000 nM | < 1000 nM | < 1000 nM | c1cc(CN2CCOCC2)ncc1Nc1cnc2ccc(Nc3nnc(C4CCCC4)s3)nc2c1 [Example 0085]
< 1000 nM | < 1000 nM | < 1000 nM | c1cc(CN2CCCC2)ncc1Nc1cnc2ccc(Nc3nnc(C4CCCC4)s3)nc2c1 [Example 0086]
< 1000 nM | < 1000 nM | < 1000 nM | c1ncc(OCCCN2CCCC2)cc1Nc1cnc2ccc(Nc3nnc(C4CCCC4)s3)nc2c1 [Example 0087]
< 1000 nM | < 1000 nM | < 1000 nM | c1cc(Nc2cnc3ccc(Nc4nnc(C5CCCC5)s4)nc3c2)cnn1 [Example 0088]
< 1000 nM | < 1000 nM | < 1000 nM | c1ncc(Nc2cnc3ccc(Nc4nnc(C5CCCC5)s4)nc3c2)cn1 [Example 0089]
< 1000 nM | < 1000 nM | < 1000 nM | c1ncc(N2CCOCC2)cc1Nc1cnc2ccc(Nc3nnc(C4CCCC4)s3)nc2c1 [Example 0090]
< 1000 nM | < 1000 nM | < 1000 nM | c1nc2ccc(Nc3nnc(C4CCCC4)s3)nc2cc1N1CCn2cnnc2C1 [Example 0091]
< 1000 nM | 1000 to 10000 nM | < 1000 nM | COC1CN(c2cnc3ccc(Nc4nnc(C5CCCC5)s4)nc3c2)C1 [Example 0092]
< 1000 nM | 1000 to 10000 nM | 10000 to 50000 nM | c1cc(OC2CCOCC2)ncc1Nc1cnc2ccc(Nc3nnc(C4CCCC4)s3)nc2c1 [Example 0093]
10000 to 50000 nM | < 1000 nM | 10000 to 50000 nM | c1ccc2ncc(Nc3cnc4ccc(Nc5nnc(C6CCCC6)s5)nc4c3)cc2c1 [Example 0094]
< 1000 nM | < 1000 nM | 1000 to 10000 nM | CC(C)c1nnc(Nc2ccc3ncc(Nc4cncnc4)cc3n2)s1 [Example 0095]
< 1000 nM | < 1000 nM | < 1000 nM | CC(C)c1nnc(Nc2ccc3ncc(Nc4ccc(CN5CCOCC5)nc4)cc3n2)s1 [Example 0096]
< 1000 nM | < 1000 nM | < 1000 nM | CCCc1nn(C)cc1-c1cnc2ccc(Nc3nnc(C4CCCC4)s3)nc2c1 [Example 0112]
< 1000 nM | < 1000 nM | < 1000 nM | COc1nn(C)cc1-c1cnc2ccc(Nc3nnc(C4CCCC4)s3)nc2c1 [Example 0114]
< 1000 nM | < 1000 nM | < 1000 nM | CCCCc1nn(C)cc1-c1cnc2ccc(Nc3nnc(C4CCCC4)s3)nc2c1 [Example 0115]

IC50 [1] | IC50 [2] | IC50 [3] | Compound
< 1000 nM | < 1000 nM | < 1000 nM | c1nc(CN2CCOCC2)ncc1Nc1cnc2ccc(Nc3nnc(C4CCCC4)s3)nc2c1 [Example 0116]
< 1000 nM | < 1000 nM | < 1000 nM | c1nc2ccc(Nc3nnc(C4CCCC4)s3)nc2cc1-c1cnn(CCCN2CCOCC2)c1 [Example 0117]
< 1000 nM | < 1000 nM | < 1000 nM | CC(C)c1nnc(Nc2ccc3ncc(-c4cnn(CCCN5CCOCC5)c4)cc3n2)s1 [Example 0118]
< 1000 nM | < 1000 nM | < 1000 nM | Cc1nn(C)cc1-c1cnc2ccc(Nc3nnc(C(C)C)s3)nc2c1 [Example 0120]
< 1000 nM | < 1000 nM | < 1000 nM | CCc1nn(C)cc1-c1cnc2ccc(Nc3nnc(C(C)C)s3)nc2c1 [Example 0121]
< 1000 nM | < 1000 nM | 1000 to 10000 nM | CC(C)c1nnc(Nc2ccc3ncc(-c4cn(C)nc4-c4ccccc4)cc3n2)s1 [Example 0124, 5-isopropyl-N-(7-(1-methyl-3-phenyl-1H-pyrazol-4-yl)-1,5-naphthyridin-2-yl)-1,3,4-thiadiazole-2-amine]
< 1000 nM | < 1000 nM | 1000 to 10000 nM | Cn1cc(-c2cnc3ccc(Nc4nnc(C5CCCC5)s4)nc3c2)c(-c2ccccc2)n1 [Example 0129, 5-cyclopentyl-N-(7-(1-methyl-3-phenyl-1H-pyrazol-4-yl)-1,5-naphthyridin-2-yl)-1,3,4-thiadiazole-2-amine]
< 1000 nM | < 1000 nM | < 1000 nM | COc1nn(C)cc1-c1cnc2ccc(Nc3nnc(C(C)C)s3)nc2c1 [Example 0131]
< 1000 nM | < 1000 nM | < 1000 nM | Cn1cc(-c2cnc3ccc(Nc4nnc(C5CCCC5)s4)nc3c2)c(C2CC2)n1 [Example 0132]
< 1000 nM | < 1000 nM | < 1000 nM | CC(C)c1nnc(Nc2ccc3ncc(-c4cn(C)nc4C4CC4)cc3n2)s1 [Example 0133]
< 1000 nM | < 1000 nM | < 1000 nM | CC(C)c1nnc(Nc2ccc3ncc(-c4cn(C)nc4-c4cccnc4)cc3n2)s1 [Example 0134]
< 1000 nM | < 1000 nM | 1000 to 10000 nM | CC(C)c1nnc(Nc2ccc3ncc(-c4cn(C)nc4-c4ccncc4)cc3n2)s1 [Example 0135]
< 1000 nM | < 1000 nM | < 1000 nM | CC(C)Cc1nn(C)cc1-c1cnc2ccc(Nc3nnc(C(C)C)s3)nc2c1 [Example 0138]
< 1000 nM | < 1000 nM | < 1000 nM | COCc1nn(C)cc1-c1cnc2ccc(Nc3nnc(C(C)C)s3)nc2c1 [Example 0142]
< 1000 nM | < 1000 nM | < 1000 nM | CCCc1nn(CCCN2CCCC2)cc1-c1cnc2ccc(Nc3nnc(C(C)C)s3)nc2c1 [Example 0147]
< 1000 nM | < 1000 nM | 1000 to 10000 nM | CCOc1nn(C)cc1-c1cnc2ccc(Nc3nnc(C(C)C)s3)nc2c1 [Example 0150]
< 1000 nM | 10000 to 50000 nM | 1000 to 10000 nM | Cc1ccc(Nc2ccc3ncc(-c4cnn(C)c4)cc3n2)nn1 [Example 0151]
< 1000 nM | < 1000 nM | < 1000 nM | COc1cncc(Nc2cnc3ccc(Nc4cc(C)cnn4)nc3c2)c1 [Example 0157, N^7-(5-methoxypyridin-3-yl)-N^2-(5-methylpyridazin-3-yl)-1,5-naphthyridine-2,7-diamine]
< 1000 nM | < 1000 nM | 1000 to 10000 nM | Cc1cnnc(Nc2ccc3ncc(Nc4cncc(OCCN5CCOCC5)c4)cc3n2)c1 [Example 0158, N^2-(5-methylpyridazin-3-yl)-N^7-(5-(2-morpholinoethoxyl)pyridin-3-yl)-1,5-naphthyridine-2,7-diamine]
